According to ChEMBL document CHEMBL4145489, “Synthesis and anti-tumor activity of EF24 analogues as IKKβ inhibitors” (Eur J Med Chem, 2018):
Calls of active or inactive are those of the source. The calls are words filed in the database; no cut-off is given here.

Assays:
[1] = tested on: SGC-7901; test: Antiproliferative activity against human SGC7901 cells after 72 hrs by MTT assay; format: functional, cell-based; details: SGC-7901, 72 h
[2] = tested on: A549; test: Antiproliferative activity against human A549 cells after 72 hrs by MTT assay; format: functional, cell-based; details: A549, 72 h
[3] = tested on: MGC-803; test: Antiproliferative activity against human MGC803 cells after 72 hrs by MTT assay; format: functional, cell-based; details: MGC-803, 72 h
[4] = tested on: HeLa 229; test: Antiproliferative activity against human HeLa 229 cells after 72 hrs by MTT assay; format: functional, cell-based; details: HeLa 229, 72 h
[5] = tested on: MGC-803; test: Induction of apoptosis in human MGC803 cells at 10 uM after 12 hrs by Annexin V-FITC staining-based FACS analysis (reference value: 1.17%); format: functional
[6] = tested on: SGC-7901; test: Induction of apoptosis in human SGC7901 cells at 10 uM after 12 hrs by Annexin V-FITC staining-based FACS analysis (reference value: 1.56%); format: functional
[7] = molecular target: T1, Inhibitor of nuclear factor kappa-B kinase subunit beta (Homo sapiens, UniProt O14920); test: Inhibition of IKKbeta (unknown origin) using FAM-P22 as substrate preincubated for 10 mins followed by substrate addition and measured after 1 hr by mobility shift assay
T1 sequence (O14920 whole entry): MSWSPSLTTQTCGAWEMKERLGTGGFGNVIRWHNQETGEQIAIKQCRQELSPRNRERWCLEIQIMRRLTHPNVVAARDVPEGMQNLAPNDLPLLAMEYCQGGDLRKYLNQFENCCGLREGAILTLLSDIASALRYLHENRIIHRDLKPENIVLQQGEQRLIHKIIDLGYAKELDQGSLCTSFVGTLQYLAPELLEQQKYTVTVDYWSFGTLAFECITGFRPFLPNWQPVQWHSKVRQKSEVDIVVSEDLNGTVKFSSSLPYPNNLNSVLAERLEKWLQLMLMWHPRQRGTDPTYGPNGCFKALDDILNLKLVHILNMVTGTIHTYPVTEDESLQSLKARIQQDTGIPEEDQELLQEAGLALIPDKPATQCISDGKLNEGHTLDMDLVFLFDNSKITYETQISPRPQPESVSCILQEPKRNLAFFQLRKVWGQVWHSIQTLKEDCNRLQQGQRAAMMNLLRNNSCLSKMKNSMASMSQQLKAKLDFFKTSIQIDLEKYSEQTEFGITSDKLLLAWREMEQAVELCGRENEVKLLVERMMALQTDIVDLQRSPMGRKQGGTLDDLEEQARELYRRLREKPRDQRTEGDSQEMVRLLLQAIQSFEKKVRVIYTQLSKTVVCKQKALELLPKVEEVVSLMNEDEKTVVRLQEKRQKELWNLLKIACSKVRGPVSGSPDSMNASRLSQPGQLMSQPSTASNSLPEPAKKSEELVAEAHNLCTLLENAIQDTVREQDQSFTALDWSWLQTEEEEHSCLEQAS

[8] = molecular target: T2, Inhibitor of NF-kappa-B kinase alpha/beta (Homo sapiens) (UniProt O14920+O15111); test: Inhibition of TNF-alpha induced IKKalpha/beta phosphorylation in human MGC-803 cells preincubated for 1 hr followed by TNF-alpha stimulation and measured after 10 mins by Western blot analysis; format: cell-based
[9] = tested on: SGC-7901; test: Cell cycle arrest in human SGC7901 cells assessed as accumulation of cells at G2/M phase at 1 to 10 uM after 12 hrs by propidium iodide staining-based flow cytometric analysis; format: functional
[10] = tested on: SGC-7901; test: Cell cycle arrest in human SGC7901 cells assessed as decrease in cyclinB1 levels at 1 to 10 uM after 12 hrs by Western blot analysis; format: functional, cell-based
[11] = tested on: SGC-7901; test: Induction of apoptosis in human SGC7901 cells after 12 hrs by Annexin V-FITC staining-based FACS analysis; format: functional, cell-based
[12] = tested on: MGC-803; test: Induction of apoptosis in human MGC803 cells at 5 uM after 12 hrs by Annexin V-FITC staining-based FACS analysis (reference value: 1.17%); format: functional
[13] = tested on: SGC-7901; test: Induction of apoptosis in human SGC7901 cells at 1 uM after 12 hrs by Annexin V-FITC staining-based FACS analysis (reference value: 1.56%); format: functional
[14] = tested on: MGC-803; test: Induction of apoptosis in human MGC803 cells assessed as increase in cleaved caspase-3 levels at 1 to 10 uM after 12 hrs by Western blot analysis; format: functional, cell-based
[15] = tested on: SGC-7901; test: Induction of apoptosis in human SGC7901 cells assessed as decrease in Bcl-2 levels at 1 to 10 uM after 12 hrs by Western blot analysis; format: functional, cell-based
[16] = tested on: MGC-803; test: Cell cycle arrest in human MGC803 cells assessed as decrease in Cdc2 p34 levels after 12 hrs by Western blot analysis; format: functional, cell-based
[17] = tested on: MGC-803; test: Induction of apoptosis in human MGC803 cells after 12 hrs by Annexin V-FITC staining-based FACS analysis; format: functional, cell-based
[18] = molecular target: T3, Inhibitor of nuclear factor kappa-B kinase subunit beta (Homo sapiens) (UniProt O14920); test: Inhibition of IKKbeta in human SGC-7901 cells assessed as decrease in TNF-alpha induced p65 nuclear translocation at 10 uM preincubated for 1 hr followed by TNF-alpha stimulation and measured after 1 hr by DAPI staining-based fluorescence microscopic analysis; format: cell-based
T3 sequence (whole entry): T1 sequence (O14920 whole entry)

[19] = tested on: SGC-7901; test: Induction of apoptosis in human SGC7901 cells at 5 uM after 12 hrs by Annexin V-FITC staining-based FACS analysis (reference value: 1.56%); format: functional
[20] = tested on: MGC-803; test: Cell cycle arrest in human MGC803 cells assessed as accumulation of cells at G2/M phase at 1 to 10 uM after 12 hrs by propidium iodide staining-based flow cytometric analysis; format: functional
[21] = molecular target: T2, Inhibitor of NF-kappa-B kinase alpha/beta (Homo sapiens); test: Inhibition of TNF-alpha induced IKKalpha/beta phosphorylation in human SGC-7901 cells preincubated for 1 hr followed by TNF-alpha stimulation and measured after 10 mins by Western blot analysis; format: cell-based
[22] = molecular target: T3, Inhibitor of nuclear factor kappa-B kinase subunit beta (Homo sapiens); test: Inhibition of IKKbeta in human MGC-803 cells assessed as TNF-alpha induced I-kappa-B-alpha degradation at 1 to 10 uM preincubated for 1 hr followed by TNF-alpha stimulation and measured after 10 mins by Western blot analysis; format: cell-based
[23] = tested on: Mus musculus; test: In vivo inhibition of IKKalpha/beta in tumor of athymic nude mouse xenografted with human SGC7901 cells assessed as I-kappa-B-alpha degradation at 10 mg/kg, ip administered every other day for 22 days by Western blot method; format: functional, organism-based
[24] = tested on: SGC-7901; test: Antitumor activity against human SGC7901 cells xenografted in athymic nude mouse assessed as tumor growth inhibition at 10 mg/kg, ip administered every other day for 22 days; format: functional, organism-based
[25] = tested on: SGC-7901; test: Induction of apoptosis in human SGC7901 cells assessed as increase in cleaved caspase-3 levels at 1 to 10 uM after 12 hrs by Western blot analysis; format: functional, cell-based
[26] = tested on: Mus musculus; test: Downregulation of Bcl-2 levels in tumor of athymic nude mouse xenografted with human SGC7901 cells at 10 mg/kg, ip administered every other day for 22 days by Western blot method; format: functional, organism-based
[27] = tested on: MGC-803; test: Induction of apoptosis in human MGC803 cells at 1 uM after 12 hrs by Annexin V-FITC staining-based FACS analysis (reference value: 1.17%); format: functional
[28] = tested on: MGC-803; test: Induction of apoptosis in human MGC803 cells assessed as decrease in Bcl-2 levels at 1 to 10 uM after 12 hrs by Western blot analysis; format: functional, cell-based
[29] = tested on: Mus musculus; test: Toxicity in athymic nude mouse xenografted with human SGC7901 cells assessed as body weight loss at 10 mg/kg, ip administered every other day for 22 days; format: organism-based; details: in vivo, 528 h
[30] = tested on: SGC-7901; test: Cell cycle arrest in human SGC7901 cells assessed as decrease in Cdc2 p34 levels after 12 hrs by Western blot analysis; format: functional, cell-based
[31] = tested on: Mus musculus; test: In vivo inhibition of IKKalpha/beta phosphorylation in tumor of athymic nude mouse xenografted with human SGC7901 cells at 10 mg/kg, ip administered every other day for 22 days by Western blot method; format: functional, organism-based
[32] = tested on: MGC-803; test: Cell cycle arrest in human MGC803 cells assessed as decrease in cyclinB1 levels at 1 to 10 uM after 12 hrs by Western blot analysis; format: functional, cell-based
[33] = molecular target: T3, Inhibitor of nuclear factor kappa-B kinase subunit beta (Homo sapiens); test: Inhibition of IKKbeta in human SGC-7901 cells assessed as TNF-alpha induced I-kappa-B-alpha degradation at 1 to 10 uM preincubated for 1 hr followed by TNF-alpha stimulation and measured after 10 mins by Western blot analysis; format: cell-based

**Q.** Which results are given for `O=C1/C(=C/c2ccccc2F)CNC/C1=C\c1ccccc1F`?
**A.** IC50 [1]: 1 µM; IC50 [2]: 2.8 µM; IC50 [3]: 2 µM; IC50 [4]: 1.9 µM

**Q.** How did the IC50 [1] turn out when `Cc1ccc2nc(NCCN)c3ncc(C)n3c2c1.Cl` was run?
**A.** 8.3 µM

**Q.** And the IC50 [2]?
**A.** 9.3 µM

**Q.** And the Activity [5]?
**A.** 12.61%

**Q.** And the IC50 [3]?
**A.** 14.2 µM

**Q.** And the Activity [6]?
**A.** 19.49%

**Q.** What about the IC50 [4] of the same molecule?
**A.** 9.4 µM

**Q.** Which IC50 [7] does the source give for `O=C1/C(=C/c2c(F)cccc2F)CNC/C1=C\c1c(F)cccc1F` here?
**A.** 14 µM

**Q.** `O=C1/C(=C/c2ccccc2Br)CNC/C1=C\c1ccccc1Br` was tested. Which inhibition [8] did it give?
**A.** Dose-dependent effect

**Q.** And the Activity [9]?
**A.** Active

**Q.** What about the Activity [10] of the same molecule?
**A.** Active

**Q.** And the Activity [11]?
**A.** Dose-dependent effect

**Q.** And the Activity [12]?
**A.** 16.14%

**Q.** What about the Activity [13] of the same molecule?
**A.** 8.95%

**Q.** What about the Activity [14] of the same molecule?
**A.** Active

**Q.** What about the IC50 [1] of the same molecule?
**A.** 1.2 µM

**Q.** And the Activity [15]?
**A.** Active

**Q.** And the Activity [16]?
**A.** Dose-dependent effect

**Q.** What about the Activity [17] of the same molecule?
**A.** Dose-dependent effect

**Q.** And the inhibition [18]?
**A.** Active

**Q.** What about the Activity [19] of the same molecule?
**A.** 27.9%

**Q.** And the Activity [20]?
**A.** Active

**Q.** And the IC50 [2]?
**A.** 2.1 µM

**Q.** What about the inhibition [21] of the same molecule?
**A.** Dose-dependent effect

**Q.** What about the Activity [5] of the same molecule?
**A.** 32.1%

**Q.** And the inhibition [22]?
**A.** Active

**Q.** And the inhibition [23]?
**A.** Active

**Q.** And the TGI [24]?
**A.** Active

**Q.** And the Activity [25]?
**A.** Active

**Q.** What about the Activity [26] of the same molecule?
**A.** Active

**Q.** What about the Activity [27] of the same molecule?
**A.** 9.88%

**Q.** What about the Activity [28] of the same molecule?
**A.** Active

**Q.** And the Activity [29]?
**A.** Non-Toxic

**Q.** What about the IC50 [3] of the same molecule?
**A.** 1.8 µM

**Q.** What about the Activity [30] of the same molecule?
**A.** Dose-dependent effect

**Q.** And the inhibition [31]?
**A.** Active

**Q.** And the Activity [6]?
**A.** 45.3%

**Q.** What about the Activity [32] of the same molecule?
**A.** Active

**Q.** And the inhibition [33]?
**A.** Active

**Q.** What about the IC50 [4] of the same molecule?
**A.** 1.8 µM

**Q.** `O=C1/C(=C/c2ccccc2F)COC/C1=C\c1ccccc1F` was tested. Which IC50 [7] did it give?
**A.** 19.6 µM
